Laboratory results: patent publication US5081232A, “Complexes of TC99m radiopharmaceuticals” (priority 1987, dated 1992)
Read-outs that look alike come from different tables or passages of the source. Blank lines part the entries; values can stand above or below the compound they belong to.

Legend:
[1] = Animal biodistribution (in vivo, i.v. injection); details: rats; for Blood, % injected dose/organ: blood taken as 5.8% of body weight; for Muscle, % injected dose/organ: muscle taken as 43% of body weight
Experimental: (§1) 0.1 ml Tc^99m prep was injected i.v. into a lateral tail vein of 6 anaesthetised rats.
(§2) At 2 minutes and 60 minutes post injection, 3 rats were sacrificed by decapitation, bled from the neck and dissected. The following organs were removed at dissection: kidney, bladder(+urine), lung, liver, spleen, stomach, small intestine, large intestine, brain (weighed), heart (weighed), thyroid, and samples of blood (weighed) and muscle (weighed, the residual carcass and the tail (injection site). Subsequently samples were counted in an automatic twin crystal gamma counter.
(§3) Percentage biodistribution of injected material was calculated (after correction for background) for all organs using the formula: [formula]
(§4) Since only samples of muscle and blood were taken, the percentage in these tissues was calculated assuming blood and muscle to represent 5.8 and 43% of total animal weight respectively using the formula: [formula] where CF= 0.058 for blood

[2] = Electrophoresis (behaviour of complex under electrophoretic conditions); format: physicochemical; details: Tc-99 and Tc-99m
Experimental: A 0.1 g Agarose/10 cm^3 50 mM Phosphate buffer pH 7.4 gel was run at an applied potential of 300 VV for approximately 35 mins, using bromophenol blue indicator (this indicator moves towards the […]). The resulting distribution of activity was determined using suitable equipment.

[3] = rat, in vivo, iv
Experimental: as §1, §2, §3, §4

- Brain, % injected dose/organ ([1]; 2 min p.i.): 0.10 % injected dose/organ
- Heart, % injected dose/organ ([1]; 2 min p.i.): 0.56 % injected dose/organ
- Heart/Blood Counts/Gram ratio ([1]; 2 min p.i.): 2.2
- Heart/Liver Counts/Gram ratio ([1]; 2 min p.i.): 2.30
- Heart/Lung Counts/Gram ratio ([1]; 2 min p.i.): 1.12
- Heart/Muscle Counts/Gram ratio ([1]; 2 min p.i.): 2.19
- Kidney + Urine, % injected dose/organ ([1]; 2 min p.i.): 1.61 % injected dose/organ
- Liver + GI, % injected dose/organ ([1]; 2 min p.i.): 0.00 % injected dose/organ
- Liver, % injected dose/organ ([1]; 2 min p.i.): 3.12 % injected dose/organ
- Lung, % injected dose/organ ([1]; 2 min p.i.): 0.73 % injected dose/organ
- Blood, % injected dose/organ ([1]; 2 min p.i.): 3.56 % injected dose/organ
- Muscle, % injected dose/organ ([1]; 2 min p.i.): 27.9 % injected dose/organ
- Brain, % injected dose/organ ([1]; 60 min p.i.): 0.05 % injected dose/organ
- Heart, % injected dose/organ ([1]; 60 min p.i.): 0.23 % injected dose/organ
- Heart/Blood Counts/Gram ratio ([1]; 60 min p.i.): 1.76
- Heart/Liver Counts/Gram ratio ([1]; 60 min p.i.): 0.39
- Heart/Lung Counts/Gram ratio ([1]; 60 min p.i.): 0.74
- Heart/Muscle Counts/Gram ratio ([1]; 60 min p.i.): 1.84
- Kidney + Urine, % injected dose/organ ([1]; 60 min p.i.): 13.55 % injected dose/organ
- Liver + GI, % injected dose/organ ([1]; 60 min p.i.): 0.00 % injected dose/organ
- Liver, % injected dose/organ ([1]; 60 min p.i.): 8.27 % injected dose/organ
- Lung, % injected dose/organ ([1]; 60 min p.i.): 0.53 % injected dose/organ
- Blood, % injected dose/organ ([1]; 60 min p.i.): 2.00 % injected dose/organ
- Muscle, % injected dose/organ ([1]; 60 min p.i.): 14.37 % injected dose/organ
SMILES: CC(=O)C=C(C)[O][99Tc-]([Cl])([Cl])([Cl])[N]=O [[^99 Tc(NO)Cl3 (acac)]^-, trichloro(pentan-2,4-dionato) nitrosyltechnetium(II) anion]
- Stability under electrophoretic conditions [2]: decomposed under electrophoretic conditions

SMILES: CCP(CC)CCP(CC)CC.CCP(CC)CCP(CC)CC.O=[N][99Tc+][Cl].[Cl-] [[^99m Tc(NO(DEPE)2 Cl]^+]
- Blood, % injected dose/organ ([3]; 2 min): 6.00 % injected dose/organ
- Heart, % injected dose/organ ([3]; 2 min): 1.06 % injected dose/organ
- Heart/Blood Counts/Gram ratio ([3]; 2 min): 3.03
- Heart/Liver Counts/Gram ratio ([3]; 2 min): 0.73
- Heart/Lung Counts/Gram ratio ([3]; 2 min): 0.4
- Heart/Muscle Counts/Gram ratio ([3]; 2 min): 5.94
- Kidney + Urine, % injected dose/organ ([3]; 2 min): 13.8 % injected dose/organ
- Liver + GI, % injected dose/organ ([3]; 2 min): 37.3 % injected dose/organ
- Liver, % injected dose/organ ([3]; 2 min): 23.63 % injected dose/organ
- Lung, % injected dose/organ ([3]; 2 min): 2.98 % injected dose/organ
- Muscle, % injected dose/organ ([3]; 2 min): 22.9 % injected dose/organ
- Blood, % injected dose/organ ([3]; 60 min): 0.41 % injected dose/organ
- Heart, % injected dose/organ ([3]; 60 min): 0.92 % injected dose/organ
- Heart/Blood Counts/Gram ratio ([3]; 60 min): 38.1
- Heart/Liver Counts/Gram ratio ([3]; 60 min): 1.75
- Heart/Lung Counts/Gram ratio ([3]; 60 min): 0.6
- Heart/Muscle Counts/Gram ratio ([3]; 60 min): 6.18
- Kidney + Urine, % injected dose/organ ([3]; 60 min): 19.3 % injected dose/organ
- Liver + GI, % injected dose/organ ([3]; 60 min): 47.0 % injected dose/organ
- Liver, % injected dose/organ ([3]; 60 min): 7.54 % injected dose/organ
- Lung, % injected dose/organ ([3]; 60 min): 1.57 % injected dose/organ
- Muscle, % injected dose/organ ([3]; 60 min): 19.1 % injected dose/organ

SMILES: CCCP(C)CCP(C)CCC.CCCP(C)CC[P](C)(CCC)[99Tc+]([Cl])[N]=O (stereo not drawn) [[^99m Tc(NO) × (PMPE)2]^+]
- Blood, % injected dose/organ ([3]; 2 min): 3.27 % injected dose/organ
- Heart, % injected dose/organ ([3]; 2 min): 0.92 % injected dose/organ
- Heart/Blood Counts/Gram ratio ([3]; 2 min): 4.15
- Heart/Liver Counts/Gram ratio ([3]; 2 min): 0.44
- Heart/Muscle Counts/Gram ratio ([3]; 2 min): 4.78
- Kidney + Urine, % injected dose/organ ([3]; 2 min): 13.3 % injected dose/organ
- Liver + GI, % injected dose/organ ([3]; 2 min): 44.7 % injected dose/organ
- Liver, % injected dose/organ ([3]; 2 min): 27.4 % injected dose/organ
- Lung, % injected dose/organ ([3]; 2 min): 1.40 % injected dose/organ
- Muscle, % injected dose/organ ([3]; 2 min): 21.1 % injected dose/organ
- Blood, % injected dose/organ ([3]; 60 min): 0.42 % injected dose/organ
- Heart, % injected dose/organ ([3]; 60 min): 0.77 % injected dose/organ
- Heart/Blood Counts/Gram ratio ([3]; 60 min): 27.8
- Heart/Liver Counts/Gram ratio ([3]; 60 min): 1.65
- Heart/Lung Counts/Gram ratio ([3]; 60 min): 2.3
- Heart/Muscle Counts/Gram ratio ([3]; 60 min): 5.01
- Kidney + Urine, % injected dose/organ ([3]; 60 min): 15.2 % injected dose/organ
- Liver + GI, % injected dose/organ ([3]; 60 min): 53.6 % injected dose/organ
- Liver, % injected dose/organ ([3]; 60 min): 6.23 % injected dose/organ
- Lung, % injected dose/organ ([3]; 60 min): 0.53 % injected dose/organ
- Muscle, % injected dose/organ ([3]; 60 min): 17.5 % injected dose/organ
- Heart/Lung Counts/Gram ratio ([1]; 2 min p.i.): 1.0
